According to US20110207783A1, “RENIN INHIBITORS” (priority 2007, published 2011):

Tests used:
Renin = molecular target: T1, Renin (Homo sapiens, UniProt P00797); test: Renin QFRET; format: biochemical
T1 sequence (P00797 67-406): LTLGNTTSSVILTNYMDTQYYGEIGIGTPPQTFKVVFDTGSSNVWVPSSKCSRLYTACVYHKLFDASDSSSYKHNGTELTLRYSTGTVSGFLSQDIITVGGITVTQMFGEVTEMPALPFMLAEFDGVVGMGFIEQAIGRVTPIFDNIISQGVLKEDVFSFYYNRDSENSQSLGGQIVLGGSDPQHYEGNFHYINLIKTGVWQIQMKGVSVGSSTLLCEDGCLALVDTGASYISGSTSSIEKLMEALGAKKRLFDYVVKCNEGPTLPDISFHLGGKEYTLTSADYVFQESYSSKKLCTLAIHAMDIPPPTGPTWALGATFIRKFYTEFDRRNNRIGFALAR

renin in human plasma = molecular target: T2, renin in human plasma (Homo sapiens, UniProt P00797); test: Inhibition of renin in human plasma; format: biochemical
T2 construct: from tissue; host or cells: human plasma from 10 normal donors, spiked with human recombinant renin (3 pM)
T2 sequence (P00797 67-406): T1 sequence (P00797 67-406)
Description: The enzymatic in vitro assay was performed in 384-well polypropylene plates (Nunc). The assay buffer consisted of PBS (Gibco BRL) including 1 mM EDTA and 0.1% BSA. The reaction mixture was composed of 80 μL per well of human plasma, enzyme, Ang I-antibodies mix and 5 μL of renin inhibitors in DMSO. The human plasma mix was premixed at 4° C. and consists of • human plasma from 10 normal donors • human recombinant renin (3 pM) • Ang I-antibodies. The mixtures were then incubated at 37° C. for 2 h.
To determine the enzymatic activity and its inhibition, the accumulated Ang I was detected by an enzyme immunoassay (EIA) in 384-well plates (Nunc). 10 μL of the reaction mixture or standards were transferred to immuno plates which were previously coated with a covalent complex of Ang I and bovine serum albumin (Ang I-BSA). 70 μL assay buffer were added and the plates were incubated at 4° C. overnight. The plates were washed 3 times with PBS including 0.01% Tween 20, and then incubated for 2 h at RT with an anti rabbit-peroxidase coupled antibody (WA 934, Amersham). […]

- IC50 (Renin): 17 nM
- IC50 (renin in human plasma): 240 nM
Structure (SMILES): COCCCc1ccc(Cl)c(CN(C(=O)C(CN)Cc2cccnc2N)C2CC2)c1 (centres unmarked) [Example 5, 3-amino-2-[(2-amino-3-pyridinyl)methyl]-N-({2-chloro-5-[3-(methyloxy)propyl]phenyl}methyl)-N-cyclopropylpropanamide]
